Measured values as given in ChEMBL document CHEMBL1201862, “PubChem BioAssay data set” (2004).
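Step 1: Grow cells in 96-well plates. Step 2: Expose to compound for 48 hours at 5 concentrations. Step 3: Interpolate endpoints linearly; if unreached, use highest concentration. Here, GI50 denotes the concentration required for 50% inhibition of growth.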 Active and inactive are the calls of the source. Cut-off read from the data, not from the text of the source: active = GI50 up to about 1.1 µM and inactive = higher.

Assays:
Assay in all cases: inhibition of tumour cell growth, NCI panel, 48 h
CAKI-1 = test system: CAKI-1
UO-31 = test system: UO-31
OVCAR-8 = test system: OVCAR-8
SK-MEL-28 = test system: SK-MEL-28
SNB-75 = test system: SNB-75
EKVX = test system: EKVX
MOLT-4 = test system: MOLT-4
KM12 = test system: KM12
M14 = test system: M14
A549 = test system: A549
OVCAR-5 = test system: OVCAR-5
SN12C = test system: SN12C
RXF 393 = test system: RXF 393
NCI-H226 = test system: NCI-H226
ACHN = test system: ACHN
SK-MEL-2 = test system: SK-MEL-2
HCC 2998 = test system: HCC 2998

Measured: GI50

O=c1[nH]c(Br)nc2c(Br)c[nH]c12
inactive: CAKI-1 > 100 µM | UO-31 > 100 µM | OVCAR-8 > 100 µM | SK-MEL-28 > 100 µM | SNB-75 > 100 µM | EKVX > 100 µM | MOLT-4 > 100 µM | KM12 > 100 µM | M14 > 100 µM | A549 > 100 µM | OVCAR-5 > 100 µM | SN12C > 100 µM | RXF 393 > 100 µM | NCI-H226 > 100 µM | ACHN > 100 µM | SK-MEL-2 > 100 µM

Cc1nc(-n2nc(-c3ccccc3)cc2-c2ccccc2)sc1C(=O)CC(=O)C(=O)Nc1ccc(O)cc1
inactive: CAKI-1 > 100 µM | UO-31 > 100 µM | OVCAR-8 > 100 µM | SNB-75 > 100 µM | EKVX > 100 µM | MOLT-4 > 100 µM | KM12 > 100 µM | M14 > 100 µM | A549 > 100 µM | OVCAR-5 > 100 µM | SN12C > 100 µM | RXF 393 > 100 µM | NCI-H226 > 100 µM | ACHN > 100 µM | SK-MEL-2 > 100 µM | HCC 2998 > 100 µM

Cc1cc2c3ccccc3n3c2c2c1OC1(C)CCC(C2C1)C3(C)C (stereo not drawn)
inactive: UO-31 > 25 µM | OVCAR-8 > 25 µM | SK-MEL-28 > 25 µM | MOLT-4 > 25 µM | KM12 > 25 µM | M14 > 25 µM | A549 > 25 µM | OVCAR-5 > 25 µM | SN12C > 25 µM | NCI-H226 > 25 µM | ACHN > 25 µM | SK-MEL-2 > 25 µM | HCC 2998 > 25 µM

CC1(C)CC(=O)C=C(NC(=O)c2ccccc2)C1
inactive: CAKI-1 > 100 µM | UO-31 > 100 µM | OVCAR-8 > 100 µM | SK-MEL-28 > 100 µM | SNB-75 > 100 µM | EKVX > 100 µM | MOLT-4 > 100 µM | KM12 > 100 µM | M14 > 100 µM | A549 > 100 µM | SN12C > 100 µM | RXF 393 > 100 µM | SK-MEL-2 > 100 µM | HCC 2998 > 100 µM

O=C1OC(=O)C2C1C1(c3ccccc3)OC2(c2ccccc2)c2c(Br)c(Br)c(Br)c(Br)c21 (stereo not drawn)
inactive: CAKI-1 > 100 µM | UO-31 > 100 µM | OVCAR-8 > 100 µM | SNB-75 > 100 µM | EKVX > 100 µM | MOLT-4 > 100 µM | KM12 > 100 µM | M14 > 100 µM | A549 > 100 µM | OVCAR-5 > 100 µM | SN12C > 100 µM | RXF 393 42.3 µM | NCI-H226 > 100 µM | SK-MEL-2 > 100 µM

CCOCc1cc(=O)c2c(OC)cc3c(c2o1)CCC(C)(C)O3
inactive: UO-31 > 100 µM | OVCAR-8 > 100 µM | SK-MEL-28 > 100 µM | SNB-75 > 100 µM | EKVX > 100 µM | MOLT-4 > 100 µM | KM12 > 100 µM | M14 > 100 µM | A549 > 100 µM | OVCAR-5 > 100 µM | SN12C > 100 µM | RXF 393 > 100 µM | ACHN > 100 µM | SK-MEL-2 > 100 µM | HCC 2998 > 100 µM

Oc1ccc([Te]CCNCC[Te]c2ccc(O)cc2)cc1
inactive: CAKI-1 30.5 µM | UO-31 9.2 µM | OVCAR-8 16.3 µM | SNB-75 6.55 µM | EKVX 3.56 µM | MOLT-4 4.49 µM | KM12 15 µM | M14 17.6 µM | A549 3.66 µM | OVCAR-5 16 µM | SN12C 9.82 µM | NCI-H226 21.3 µM | ACHN 20.1 µM | HCC 2998 12.8 µM

O=[N+]([O-])c1ccc(C[P+](c2ccccc2)(c2ccccc2)c2ccccc2)cc1
inactive: UO-31 > 100 µM | OVCAR-8 73.1 µM | SK-MEL-28 35.1 µM | SNB-75 35.9 µM | EKVX > 100 µM | MOLT-4 > 100 µM | KM12 52.5 µM | M14 56.9 µM | A549 > 100 µM | OVCAR-5 > 100 µM | SN12C > 100 µM | RXF 393 11.9 µM | NCI-H226 > 100 µM | ACHN > 100 µM | SK-MEL-2 25.4 µM | HCC 2998 36.1 µM

Nc1cc(=O)n(-c2ccccc2)c(=S)n1-c1ccccc1
inactive: CAKI-1 > 100 µM | UO-31 > 100 µM | OVCAR-8 > 100 µM | SNB-75 > 100 µM | EKVX > 100 µM | MOLT-4 > 100 µM | KM12 > 100 µM | M14 > 100 µM | A549 > 100 µM | OVCAR-5 > 100 µM | SN12C > 100 µM | RXF 393 > 100 µM | NCI-H226 > 100 µM | ACHN > 100 µM | SK-MEL-2 > 100 µM | HCC 2998 > 100 µM

COc1ccc2nccc(C3=CCC4CCN(C(=O)c5ccccc5)C3C4)c2c1 (stereo not drawn)
inactive: CAKI-1 > 100 µM | UO-31 40.7 µM | OVCAR-8 > 100 µM | SK-MEL-28 > 100 µM | SNB-75 93.5 µM | EKVX > 100 µM | MOLT-4 44.9 µM | KM12 > 100 µM | M14 > 100 µM | A549 > 100 µM | SN12C > 100 µM | RXF 393 > 100 µM | SK-MEL-2 > 100 µM | HCC 2998 > 100 µM

COc1ccc2[nH]c3c(c2c1)CCN(C)CC3
inactive: CAKI-1 > 100 µM | OVCAR-8 > 100 µM | SK-MEL-28 > 100 µM | SNB-75 > 100 µM | EKVX > 100 µM | MOLT-4 > 100 µM | KM12 > 100 µM | M14 > 100 µM | A549 > 100 µM | OVCAR-5 > 100 µM | ACHN > 100 µM | SK-MEL-2 > 100 µM | HCC 2998 > 100 µM

C/C(CN1C(=O)c2ccccc2C1=O)=N\NS(=O)(=O)c1ccc2ccccc2c1
inactive: CAKI-1 > 100 µM | UO-31 > 100 µM | OVCAR-8 > 100 µM | SK-MEL-28 > 100 µM | SNB-75 32.1 µM | EKVX > 100 µM | MOLT-4 > 100 µM | KM12 > 100 µM | M14 > 100 µM | A549 > 100 µM | OVCAR-5 > 100 µM | SN12C > 100 µM | NCI-H226 > 100 µM | ACHN > 100 µM | SK-MEL-2 > 100 µM | HCC 2998 > 100 µM

Cc1ccc(-n2c3nc(=O)n(C)c(=O)c-3nc3ccccc32)cc1
inactive: CAKI-1 21.9 µM | UO-31 40.2 µM | OVCAR-8 9.2 µM | SNB-75 10.9 µM | EKVX 12.9 µM | MOLT-4 14.9 µM | KM12 17.3 µM | M14 12.8 µM | A549 6.43 µM | OVCAR-5 23.8 µM | SN12C 11.5 µM | RXF 393 64.9 µM | NCI-H226 17.3 µM | ACHN 3.26 µM | SK-MEL-2 14.6 µM | HCC 2998 4.61 µM
